Results: patent publication US4656166A, “Antibiotic compounds derived from cephalosporins, process for their production and pharmaceutical compositions” (Sanofi, priority 1983, dated 1987)
≈ marks a conversion by molar mass, not a printed value. Like-named read-outs stand apart in the source and are kept apart here.

Experiments:
Type in all cases: cell-based
Klebsiella RO 30 = test: MIC, in vitro dilution method, Klebsiella RO 30 (Table III); conditions: RO30
Summary of the method: (§1)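 Dilution-method MIC, in vitro, μg/ml.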

[1] = system: Proteus vulgaris GN 76/C.1/3; test: MIC on strain not producing beta-lactamase, Proteus vulgaris GN 76/C.1/3 (Table IV); conditions: GN76, not producing beta-lactamases
Experimental: (§2) To evaluate the stability of these products towards beta-lactamases, their MIC was determined on isogenic strains producing and not producing beta-lactamases.
(§3) The results are expressed in μg/ml in Table IV.

Citrobacter RL 49 = test: MIC, in vitro dilution method, Citrobacter RL 49 (Table III); conditions: RL49
Summary of the method: as §1

Pseudomonas RL 112 = test: MIC, in vitro dilution method, Pseudomonas RL 112 (Table III); conditions: RL112
Summary of the method: as §1

Escherichia coli 255/L.7 = test: MIC on strain not producing beta-lactamase, Escherichia coli 255/L.7 (Table IV); conditions: Escherichia coli 255/L.7 *, not producing beta-lactamases; read-out: MIC
Experimental: as §2, §3

Escherichia coli SOL 90 = test: MIC, in vitro dilution method, Escherichia coli SOL 90 (Table III); conditions: SOL90
Summary of the method: as §1

[2] = system: Serrtia liquefaciens SL 1326 S; test: MIC on strain not producing beta-lactamase, Serratia liquefaciens SL 1326 S (Table IV); conditions: SL1326S, not producing beta-lactamases
Experimental: as §2, §3

[3] = system: Proteus vulgaris GN 76/C.1; test: MIC on beta-lactamase producing strain Proteus vulgaris GN 76/C.1 (Table IV); conditions: GN76
Experimental: as §2, §3

[4] = system: Proteus vulgaris RL 99 bis; test: MIC, in vitro dilution method, Proteus vulgaris RL 99 bis (Table III); conditions: RL99BIS
Summary of the method: as §1

[5] = system: Serrtia liquefaciens SL/326 A; test: MIC on beta-lactamase producing strain Serratia liquefaciens SL/326 A (Table IV)
Experimental: as §2, §3

Enterobacter RO 154 = test: MIC, in vitro dilution method, Enterobacter RO 154 (Table III); conditions: RO154
Summary of the method: as §1

Escherichia coli 255 = test: MIC on beta-lactamase producing strain Escherichia coli 255 (Table IV)
Experimental: as §2, §3

Serratia RL 72 = test: MIC, in vitro dilution method, Serratia RL 72 (Table III); conditions: RL72
Summary of the method: as §1

[6] = Klebsiella RO 30, dilution method, read-out: MIC
[7] = Escherichia coli SOL 90, dilution method, read-out: MIC
[8] = Enterobacter RO 154, dilution method, read-out: MIC
[9] = Escherichia coli 255, producing beta-lactamases, read-out: MIC
[10] = Proteus vulgaris GN 76/C.1, producing beta-lactamases, read-out: MIC
[11] = Citrobacter RL 49, dilution method, read-out: MIC
[12] = Proteus vulgaris RL 99 bis, dilution method, read-out: MIC

Compound	MIC (Klebsiella RO 30; [6]) [µg/mL]	MIC [1] [µg/mL]	MIC (Citrobacter RL 49; Citrobacter) [µg/mL]	MIC (Pseudomonas RL 112) [µg/mL]	MIC (Escherichia coli 255/L.7) [µg/mL]	MIC (Escherichia coli SOL 90; [7]) [µg/mL]	MIC [2] [µg/mL]	MIC ([3]; Proteus vulgaris) [µg/mL]	MIC ([4]; Proteus vulgaris) [µg/mL]	MIC [5] [µg/mL]	MIC (Enterobacter RO 154; [8]) [µg/mL]	MIC (Escherichia coli 255; [9]) [µg/mL]	MIC (Serratia RL 72) [µg/mL]	MIC (Klebsiella RO 30; Klebsiella) [µg/mL]	MIC (Enterobacter RO 154; Enterobacter) [µg/mL]	MIC [3, 10] [µg/mL]	MIC (Escherichia coli 255; Escherichia coli, 255) [µg/mL]	MIC (Citrobacter RL 49; [11]) [µg/mL]	MIC [4, 12] [µg/mL]	MIC (Escherichia coli SOL 90; Escherichia coli) [µg/mL]
CC(C)(ON=C(C(=O)NC1C(=O)N2C(C(=O)O)=C(COC(=O)C3CCN(C(=O)CN)CC3)C[S+]([O-])C12)c1csc(N)n1)C(=O)O (centres unmarked) [42 549]	0.25 (≈ 0.373 µM)	0.0625 (≈ 0.0933 µM)	≤ 0.125	4 (≈ 5.97 µM)	0.0625 (≈ 0.0933 µM)	0.25 (≈ 0.373 µM)	≤ 0.0312	≤ 0.0312	≤ 0.125	0.125 (≈ 0.187 µM)	0.25 (≈ 0.373 µM)	0.125 (≈ 0.187 µM)	0.5 (≈ 0.747 µM)							
Cc1c(CN)cccc1C(=O)OCC1=C(C(=O)O)N2C(=O)C(NC(=O)/C(=N\OC(C)(C)C(=O)O)c3csc(N)n3)C2[S+]([O-])C1 (centres unmarked) [42 456]		0.125 (≈ 0.193 µM)	≤ 0.125	4 (≈ 6.17 µM)	≤ 0.0312	0.25 (≈ 0.385 µM)	0.0625 (≈ 0.0964 µM)	≤ 0.0312	≤ 0.125	0.25 (≈ 0.385 µM)		0.0625 (≈ 0.0964 µM)	0.5 (≈ 0.771 µM)	≤ 0.125	≤ 0.125					
CC(C)(ON=C(C(=O)NC1C(=O)N2C(C(=O)O)=C(CSC(=O)c3ccc(NC(=O)CN)cc3)C[S+]([O-])C12)c1csc(N)n1)C(=O)O (centres unmarked) [compound 42664]	0.5 (≈ 0.721 µM)	0.25 (≈ 0.36 µM)		8 (≈ 11.5 µM)	0.0625 (≈ 0.0901 µM)	1 (≈ 1.44 µM)	0.0625 (≈ 0.0901 µM)			0.25 (≈ 0.36 µM)	4 (≈ 5.77 µM)	0.25 (≈ 0.36 µM)	4 (≈ 5.77 µM)			0.125 (≈ 0.18 µM)				
CC(C)(O/N=C(\C(=O)NC1C(=O)N2C(C(=O)O)=C(COC(=O)CC3CCNCC3)C[S+]([O-])C12)c1csc(N)n1)C(=O)O (centres unmarked) [42 474]	0.25 (≈ 0.399 µM)	0.0625 (≈ 0.0997 µM)	≤ 0.125	4 (≈ 6.38 µM)	0.0625 (≈ 0.0997 µM)	0.25 (≈ 0.399 µM)	≤ 0.0312	0.0625 (≈ 0.0997 µM)	≤ 0.125	0.125 (≈ 0.199 µM)		0.0625 (≈ 0.0997 µM)	0.25 (≈ 0.399 µM)		≤ 0.125					
CC(C)(O/N=C(\C(=O)NC1C(=O)N2C(C(=O)O)=C(COC(=O)c3ccc(NC(=O)CN)cc3)C[S+]([O-])C12)c1csc(N)n1)C(=O)O (centres unmarked) [42 467]	0.25 (≈ 0.369 µM)	0.0625 (≈ 0.0922 µM)	≤ 0.125	4 (≈ 5.9 µM)	≤ 0.0312	0.25 (≈ 0.369 µM)	0.125 (≈ 0.184 µM)	≤ 0.0312	≤ 0.125	0.125 (≈ 0.184 µM)	0.5 (≈ 0.738 µM)	0.0625 (≈ 0.0922 µM)	2 (≈ 2.95 µM)							
NCC(=O)Nc1ccc(C(=O)OCC2=C(C(=O)O)N3C(=O)C(NC(=O)C(=NOC4(C(=O)O)CCC4)c4csc(N)n4)C3[S+]([O-])C2)cc1 (centres unmarked) [42 548]		0.0625 (≈ 0.0906 µM)	≤ 0.125	2 (≈ 2.9 µM)	≤ 0.0312	0.25 (≈ 0.362 µM)	≤ 0.0312	0.0625 (≈ 0.0906 µM)	≤ 0.125	0.125 (≈ 0.181 µM)	0.25 (≈ 0.362 µM)		0.5 (≈ 0.725 µM)	0.125 (≈ 0.181 µM)			0.625 (≈ 0.906 µM)			
CC(C)(ON=C(C(=O)NC1C(=O)N2C(C(=O)O)=C(CSC(=O)C3CCC(CN)CC3)C[S+]([O-])C12)c1csc(N)n1)C(=O)O (centres unmarked) [compound 42118]	0.5 (≈ 0.761 µM)			8 (≈ 12.2 µM)	0.25 (≈ 0.381 µM)	1 (≈ 1.52 µM)	0.12 (≈ 0.183 µM)			0.25 (≈ 0.381 µM)	16 (≈ 24.4 µM)	0.5 (≈ 0.761 µM)	4 (≈ 6.09 µM)			0.5 (≈ 0.761 µM)		0.5 (≈ 0.761 µM)	0.25 (≈ 0.381 µM)	
CC(C)(O/N=C(\C(=O)NC1C(=O)N2C(C(=O)O)=C(COC(=O)c3cccc(CN)c3)C[S+]([O-])C12)c1csc(N)n1)C(=O)O (centres unmarked) [42 320]		0.125 (≈ 0.197 µM)	≤ 0.125	4 (≈ 6.3 µM)	0.0625 (≈ 0.0985 µM)		≤ 0.0312	≤ 0.0312	≤ 0.125	0.125 (≈ 0.197 µM)		0.0625 (≈ 0.0985 µM)	0.5 (≈ 0.788 µM)	≤ 0.125	≤ 0.125					≤ 0.125
CC(N)CC(=O)OCC1=C(C(=O)O)N2C(=O)C(NC(=O)C(=NOC(C)(C)C(=O)O)c3csc(N)n3)C2[S+]([O-])C1 (centres unmarked) [42 024]	0.25 (≈ 0.426 µM)			4 (≈ 6.82 µM)	≤ 0.12	0.5 (≈ 0.852 µM)	0.06 (≈ 0.102 µM)			0.25 (≈ 0.426 µM)	2 (≈ 3.41 µM)	0.25 (≈ 0.426 µM)	0.5 (≈ 0.852 µM)			0.25 (≈ 0.426 µM)		0.5 (≈ 0.852 µM)	0.25 (≈ 0.426 µM)	
